According to publication PMC3835719 (MedChemComm, 2013):

How the values were obtained:
[1] = system: HT-29 human colon cancer cells; experiment: MTT cell growth inhibition, HT-29 colon cancer cells; assay type: cell-based; conditions: for Potency enhancement, Colon HT-29: ratio of IC50 values parent NSAID/NOSH-NSAID, 24 hr
[2] = system: Jurkat T human leukemia cells; experiment: MTT cell growth inhibition, Jurkat T leukemia cells; assay type: cell-based; conditions: ratio of IC50 values parent NSAID/NOSH-NSAID, 24 hr
[3] = system: MCF-7 (estrogen receptor positive) breast cancer cells; experiment: MTT cell growth inhibition, MCF-7 breast cancer cells; assay type: cell-based, human; conditions: ratio of IC50 values parent NSAID/NOSH-NSAID, 24 hr
[4] = system: BxPC-3 human pancreatic cancer cells; experiment: MTT cell growth inhibition, BxPC-3 pancreatic cancer cells; assay type: cell-based; conditions: ratio of IC50 values parent NSAID/NOSH-NSAID, 24 hr
[5] = system: human mammary epithelial cell line (HMEpC); experiment: Cell growth inhibition, normal mammary epithelial cells; assay type: cell-based; conditions: IC50 at 24h, HMEpC vs MCF-7
[6] = system: HT-29 human colon cancer cells; experiment: Proliferation by PCNA antigen expression; assay type: cell-based; conditions: at IC50 for cell growth inhibition, 24 hrs
[7] = system: HT-29 human colon cancer cells; experiment: Cell cycle phases by PI staining and flow cytometry; assay type: cell-based; conditions: at IC50
[8] = system: human cancer cell lines of colon, breast, pancreas, and leukemia; experiment: MTT cell growth inhibition, panel of four cancer cell lines; assay type: cell-based; conditions: ratio of IC50 values parent/NOSH compound, 24 h
[9] = system: human primary pancreatic epithelial cells (HPDE, ACBRI 515); experiment: Cell growth inhibition, normal pancreatic epithelial cells; assay type: cell-based; conditions: 24 h, read-out: IC50 for cell growth inhibition, Pancreatic Epithelial HPDE (ACBRI 515)

Compound | Fold more potent than the combination (sum of its parts) ([1]; HT-29, intact molecule vs naproxen plus SNAP and ADT-OH) | Potency enhancement, Colon HT-29 [1] | Potency enhancement, Leukemia Jurkats [2] | Potency enhancement, Breast MCF-7 [3] | Potency enhancement, Pancreas BxPC-3 [4] | Fold more potent in breast cancer cell line (MCF-7) than in normal HMEpC cells [5] | Reduction of proliferation (PCNA expression) [6] | Mode of cell cycle arrest [7] | Enhanced potency over parent compound, range over the cancer cell lines [8] | IC50 [9] [µM]
C[C@H](C(=O)Oc1ccc(-c2cc(=S)ss2)cc1)c1ccc2cc(OC(=O)CCCO[N+](=O)[O-])ccc2c1 [NOSH-NAP, (S)-6-(1-oxo-1-(4-(3-thioxo-3H-1,2-dithiol-5-yl)phenoxy)propan-2-yl) naphthalen-2-yl 4-(nitrooxy) butanoate] | approximately 8000 fold | ~34,000 | ~25,000 | ~20,000 | ~16,000 | approximately 115 fold | approximately 50% | G0/G1 cell cycle block | 16,000-34,000 fold | 
CC1=C(CC(=O)Oc2ccc(OC(=O)CCCO[N+](=O)[O-])c(C(=O)Oc3ccc(-c4cc(=S)ss4)cc3)c2)c2cc(F)ccc2/C1=C\c1ccc([S+](C)[O-])cc1 (stereo not drawn) [NOSH-SUL, (Z)-4-(3-thioxo-3H-1,2-dithiol-5-yl) phenyl 5-(2-(5-fluoro-2-methyl-1-(4-(methylsulfinyl)benzylidene)-1H-inden-3-yl)acetoxy)-2-((4-(nitrooxy)butanoyl)oxy) benzoate] |  | ~9,000 | ~2,500 | ~9,650 | ~8,200 | about 150 fold | approximately 50% | G2/M block | 2,500-9,650 fold | > 25
